According to patent US20200291018A1, “TAM KINASE INHIBITORS” (SYROS PHARMACEUTICALS, INC., priority 2017, published 2020):
Counter-ions that a name gives are not always drawn.

Tests used:
[1] = target: T1, AXL (Homo sapiens, UniProt P30530); experiment: TR-FRET kinase activity assay, AXL; format: biochemical; conditions: ATP at Km, 60 minutes
T1 sequence (P30530 26-894): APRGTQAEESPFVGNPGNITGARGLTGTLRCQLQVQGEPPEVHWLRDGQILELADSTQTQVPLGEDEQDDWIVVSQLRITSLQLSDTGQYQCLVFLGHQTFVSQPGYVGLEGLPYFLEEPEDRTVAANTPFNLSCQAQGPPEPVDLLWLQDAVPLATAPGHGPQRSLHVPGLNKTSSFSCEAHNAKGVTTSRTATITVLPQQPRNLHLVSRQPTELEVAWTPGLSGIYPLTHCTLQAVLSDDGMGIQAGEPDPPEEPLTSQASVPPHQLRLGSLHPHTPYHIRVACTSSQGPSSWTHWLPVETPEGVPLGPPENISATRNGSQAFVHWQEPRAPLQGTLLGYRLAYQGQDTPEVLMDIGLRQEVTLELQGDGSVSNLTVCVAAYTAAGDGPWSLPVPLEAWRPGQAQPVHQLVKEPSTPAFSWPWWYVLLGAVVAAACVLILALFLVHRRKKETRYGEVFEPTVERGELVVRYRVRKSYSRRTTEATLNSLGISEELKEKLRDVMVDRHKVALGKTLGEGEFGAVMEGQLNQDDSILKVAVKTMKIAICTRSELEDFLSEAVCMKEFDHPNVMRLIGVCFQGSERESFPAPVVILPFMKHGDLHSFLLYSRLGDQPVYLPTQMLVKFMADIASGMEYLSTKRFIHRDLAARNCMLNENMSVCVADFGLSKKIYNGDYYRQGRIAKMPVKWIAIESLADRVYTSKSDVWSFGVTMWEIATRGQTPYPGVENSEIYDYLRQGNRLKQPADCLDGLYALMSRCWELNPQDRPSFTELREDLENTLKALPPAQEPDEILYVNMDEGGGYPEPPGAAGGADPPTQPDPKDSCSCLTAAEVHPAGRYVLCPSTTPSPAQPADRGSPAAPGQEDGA
Method: (§1) IC50 values for compound inhibition of AXL, FLT3, MERTK and TYRO3 activity were determined using a TR-FRET activity assay. A peptide substrate with a fluorescent label is phosphorylated on a tyrosine by each enzyme, where the now phosphorylated product is bound by a Europium-labeled antibody specific to that phosphorylation site. The proximity between the antibody and the substrate gives a signal known as TR-FRET. As the enzyme is inhibited by compound, less phosphorylated peptide product is made, causing a decrease in overall signal.
(§2) Activity assays were performed in a 384-well, small volume, black microplates in an active enzyme volume of 10 uL and final developed volume of 20 uL. Final assay conditions are 50 mM HEPES pH 7.5, 10 mM MgCl2, 1 mM EGTA, 0.01% Brij 35 and 1 mM DTT, all at RT. Enzyme, substrate-labeled peptide and compound are mixed, and then the reaction is initiated with the addition of ATP at Km concentration for each enzyme. The reaction is allowed to run 60 minutes and then quenched with a 12.5 mM EDTA (ethylenediamine tetraacetic acid) solution. The plate is then developed with the addition of Europium-labeled antibody for a final volume of 20 uL and is then incubated for 30 minutes in darkness. Plates are read in a PHERASTAR® plate reader. Data are analyzed in GraphPad PRISM.

[2] = target: T2, MERTK (Homo sapiens, UniProt Q12866); experiment: TR-FRET kinase activity assay, MERTK; format: biochemical; conditions: for IC50: TR-FRET activity assay, ATP at Km, 60 minutes, read-out: Mer IC50; for Mer/Flt3 ratio (FLT3 IC50/Mer IC50): ratio calculated as FLT3 IC50/Mer IC50
T2 sequence (Q12866 21-999): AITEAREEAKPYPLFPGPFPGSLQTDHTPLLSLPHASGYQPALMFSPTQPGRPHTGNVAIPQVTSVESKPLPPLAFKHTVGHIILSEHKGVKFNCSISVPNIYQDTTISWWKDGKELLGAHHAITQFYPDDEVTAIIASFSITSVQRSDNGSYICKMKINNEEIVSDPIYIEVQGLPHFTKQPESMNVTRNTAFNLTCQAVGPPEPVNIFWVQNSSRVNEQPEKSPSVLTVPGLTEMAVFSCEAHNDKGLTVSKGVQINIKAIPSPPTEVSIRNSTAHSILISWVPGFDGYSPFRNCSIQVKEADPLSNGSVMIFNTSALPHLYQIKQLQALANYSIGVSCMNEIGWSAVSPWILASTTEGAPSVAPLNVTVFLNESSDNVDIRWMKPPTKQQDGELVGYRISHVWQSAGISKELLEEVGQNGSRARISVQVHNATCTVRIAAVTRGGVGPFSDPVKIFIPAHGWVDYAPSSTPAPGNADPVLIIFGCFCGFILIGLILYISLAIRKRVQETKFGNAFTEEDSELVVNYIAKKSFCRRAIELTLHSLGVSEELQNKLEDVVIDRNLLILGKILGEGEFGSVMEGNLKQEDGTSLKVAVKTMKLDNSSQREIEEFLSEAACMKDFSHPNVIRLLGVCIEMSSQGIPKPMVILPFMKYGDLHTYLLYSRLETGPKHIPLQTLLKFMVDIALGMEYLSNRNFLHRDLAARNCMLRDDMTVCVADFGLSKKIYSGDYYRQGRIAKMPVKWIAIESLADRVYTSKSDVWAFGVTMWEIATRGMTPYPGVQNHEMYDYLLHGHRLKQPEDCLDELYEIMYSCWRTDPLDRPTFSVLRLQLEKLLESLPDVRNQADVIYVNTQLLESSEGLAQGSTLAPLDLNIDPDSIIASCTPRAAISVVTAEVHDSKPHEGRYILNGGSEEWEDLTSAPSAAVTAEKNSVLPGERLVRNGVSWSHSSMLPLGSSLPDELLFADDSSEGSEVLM
Method: as §1, §2

Row | IC50 [1] | IC50 [2] | Mer/Flt3 ratio (FLT3 IC50/Mer IC50) [2] | Compound
1 | 100 to 1000 nM | ≤ 100 nM | +++ (a ratio of >100) | CCC[C@@H](C)Nc1ncc2c(OC3CCNCC3)ncc([C@H]3CC[C@H](O)CC3)c2n1 [Compound 196]
2 | ≤ 100 nM | ≤ 100 nM | ++ (a ratio of between 10 and 100) | Cc1cccc(Nc2ncc3c(OC4CCNCC4)ncc([C@H]4CC[C@H](O)CC4)c3n2)c1 [Compound 197]
3 | 1000 to 10000 nM | 100 to 1000 nM | + (a ratio of >2.0 and <10) | Cc1cc(Cl)ccc1Nc1ncc2c(OC3CCNCC3)ncc([C@H]3CC[C@H](O)CC3)c2n1 [Compound 198]
4 | 1000 to 10000 nM | 100 to 1000 nM | ++ (a ratio of between 10 and 100) | CC(Nc1ncc2c(OC3CCNCC3)ncc([C@H]3CC[C@H](O)CC3)c2n1)c1ccncc1 (stereo partly drawn) [Compound 202]
5 | ≤ 100 nM | ≤ 100 nM | + (a ratio of >2.0 and <10) | CCCC(C)Nc1ncc2c(OC3CCNCC3)ncc([C@H]3CC[C@H](O)CC3)c2n1 (stereo partly drawn) [Compound 203]
6 | 100 to 1000 nM | ≤ 100 nM | ++ (a ratio of between 10 and 100) | CCC[C@@H](C)Nc1ncc2c(OC3CCNCC3)ncc([C@H]3CC[C@@H](O)CC3)c2n1 [Compound 204]
7 | ≤ 100 nM | ≤ 100 nM | ++ (a ratio of between 10 and 100) | O[C@H]1CC[C@H](c2cnc(OC3CCNCC3)c3cnc(Nc4cccc(Cl)c4)nc32)CC1 [Compound 205]
8 | ≤ 100 nM | ≤ 100 nM | + (a ratio of >2.0 and <10) | O[C@H]1CC[C@H](c2cnc(OC3CCNCC3)c3cnc(Nc4ccc(Cl)cc4)nc32)CC1 [Compound 206]
9 | ≤ 100 nM | ≤ 100 nM | ++ (a ratio of between 10 and 100) | CCc1cccc(Nc2ncc3c(OC4CCNCC4)ncc([C@H]4CC[C@H](O)CC4)c3n2)c1 [Compound 207]
10 | 1000 to 10000 nM | 100 to 1000 nM | NS (a ratio of ≤2.0) | Cc1ccc(Cl)cc1Nc1ncc2c(OC3CCNCC3)ncc([C@H]3CC[C@H](O)CC3)c2n1 [Compound 209]
11 | ≤ 100 nM | ≤ 100 nM | + (a ratio of >2.0 and <10) | O[C@H]1CC[C@H](c2cnc(OC3CCNCC3)c3cnc(Nc4ccccc4)nc32)CC1 [Compound 210]
12 | 100 to 1000 nM | ≤ 100 nM | ++ (a ratio of between 10 and 100) | O[C@H]1CC[C@H](c2cnc(OC3CCNCC3)c3cnc(NC4CCOCC4)nc32)CC1 [Compound 211]
13 | 100 to 1000 nM | ≤ 100 nM | ++ (a ratio of between 10 and 100) | CC(C)CNc1ncc2c(OC3CCNCC3)ncc([C@H]3CC[C@H](O)CC3)c2n1 [Compound 212]
14 | 100 to 1000 nM | ≤ 100 nM | ++ (a ratio of between 10 and 100) | O[C@H]1CC[C@H](c2cnc(OC3CCNCC3)c3cnc(N[C@@H]4CCOC4)nc32)CC1 [Compound 213]
15 | 1000 to 10000 nM | 100 to 1000 nM | ++ (a ratio of between 10 and 100) | O[C@H]1CC[C@H](c2cnc(OC3CCNCC3)c3cnc(N[C@H]4CCCOC4)nc32)CC1 [Compound 216]
16 | 1000 to 10000 nM | 100 to 1000 nM | + (a ratio of >2.0 and <10) | C[C@@H](Nc1ncc2c(OC3CCNCC3)ncc([C@H]3CC[C@H](O)CC3)c2n1)c1ccccc1 [Compound 218]

More lines, now with the values behind:

Row | Compound | IC50 [1] | IC50 [2] | Mer/Flt3 ratio (FLT3 IC50/Mer IC50) [2]
17 | CCCCNc1cc2c(cn1)c(OC1CCNCC1)ncc2[C@H]1CC[C@H](O)CC1 [Compound 107] | ≤ 100 nM | ≤ 100 nM | ++ (a ratio of between 10 and 100)
18 | CCCCC[C@H](C)Nc1ncc2c(=O)n(C3CCOCC3)cc([C@H]3CC[C@H](O)CC3)c2n1 [Compound 108] | 100 to 1000 nM | ≤ 100 nM | +++ (a ratio of >100)
19 | CCCCNc1cc2c(cn1)c(=O)n(C1CCNCC1)cc2[C@H]1CC[C@H](O)CC1 [Compound 109, 6-(butylamino)-4-((1r,4r)-4-hydroxycyclohexyl)-2-(piperidin-4-yl)-2,7-naphthyridin-1(2H)-one hydrochloride] | 100 to 1000 nM | ≤ 100 nM | ++ (a ratio of between 10 and 100)
20 | CC[C@@H](C)Nc1ncc2c(OC3CCN(C)CC3)ncc([C@H]3CC[C@H](O)CC3)c2n1 [Compound 195] | 100 to 1000 nM | ≤ 100 nM | +++ (a ratio of >100)
21 | CCCC(C)Nc1ncc2c(=O)n([C@H]3CCN(C)C[C@@H]3F)cc([C@H]3CC[C@H](O)CC3)c2n1 (stereo partly drawn) [Compound 199] | 1000 to 10000 nM | ≤ 100 nM | +++ (a ratio of >100)
22 | CCCC(C)Nc1ncc2c(=O)n([C@@H]3CCCN(C)C3)cc([C@H]3CC[C@H](O)CC3)c2n1 (stereo partly drawn) [Compound 200] | 1000 to 10000 nM | ≤ 100 nM | +++ (a ratio of >100)
23 | CCCC(C)Nc1ncc2c(=O)n(C3CCN(C4COC4)CC3)cc([C@H]3CC[C@H](O)CC3)c2n1 (stereo partly drawn) [Compound 201] | 100 to 1000 nM | 100 to 1000 nM | +++ (a ratio of >100)
24 | CCC[C@@H](C)Nc1ncc2c(OC3CCN(C)CC3)ncc([C@H]3CC[C@H](O)CC3)c2n1 [Compound 208] | 100 to 1000 nM | ≤ 100 nM | +++ (a ratio of >100)
25 | CCCC(C)Nc1ncc2c(O[C@@H]3CCCN(C)C3)ncc([C@H]3CC[C@H](O)CC3)c2n1 (stereo partly drawn) [Compound 214] | 1000 to 10000 nM | ≤ 100 nM | ++ (a ratio of between 10 and 100)
26 | CCOc1ncc(C2CCN(C)CC2)c2nc(N[C@@H](C)CC)ncc12 [Compound 215] | 1000 to 10000 nM | 100 to 1000 nM | ++ (a ratio of between 10 and 100)
27 | CC[C@H](C)Nc1ncc2c(NC3CCOCC3)ncc([C@H]3CC[C@H](O)CC3)c2n1 [Compound 217] | 1000 to 10000 nM | ≤ 100 nM | +++ (a ratio of >100)
28 | CC[C@H](C)Nc1ncc2c(NC3CCN(C)CC3)ncc([C@H]3CC[C@H](O)CC3)c2n1 [Compound 220] | ≤ 100 nM | ≤ 100 nM | +++ (a ratio of >100)
